Where two headings read alike, the source gives them in different places.
Tested on: subjects with MDD at imminent risk for suicide
Settings: 84 mg
[1] = TEAE, double-blind phase, N = 35
[2] = adverse event, follow up phase, N = 27
[3] = overall summary, double-blind phase, N = 35
[4] = serious TEAE, double-blind phase, N = 35
[5] = serious adverse event, follow up phase, N = 27

CN[C@]1(c2ccccc2Cl)CCCCC1=O [esketamine, (S)-2-(2-chlorophenyl)-2-(methylamino)cyclohexanone]
94.3%: TEAE: % of subjects [3]
(20.0%): Vomiting: % of subjects [1]
(3.7%): Abdominal pain: % of subjects [2] | Abdominal tenderness: % of subjects [2] | Back pain: % of subjects [2] | Cogwheel rigidity: % of subjects [2] | Contusion: % of subjects [2] | Depression: % of subjects [2] | Diarrhea: % of subjects [2] | Dizziness: % of subjects [2] | Dysgeusia: % of subjects [2] | Ear infection: % of subjects [2] | Epistaxis: % of subjects [2] | Flank pain: % of subjects [2] | Intentional self-injury: % of subjects [2] | Loss of consciousness: % of subjects [2] | Migraine: % of subjects [2] | Musculoskeletal chest pain: % of subjects [2] | Musculoskeletal pain: % of subjects [2] | Nasal congestion: % of subjects [2] | Nasopharyngitis: % of subjects [2] | Neck pain: % of subjects [2] | Night sweats: % of subjects [2] | Pelvic pain: % of subjects [2] | Reproductive system and breast disorders: % of subjects [2] | Restlessness: % of subjects [2] | Road traffic accident: % of subjects [2] | Sedation: % of subjects [2] | Skin and subcutaneous tissue disorders: % of subjects [2] | Suicidal ideation: % of subjects [2] | Upper respiratory tract infection: % of subjects [2] | Vomiting: % of subjects [2] | Vulvovaginal mycotic infection: % of subjects [2]
33: TEAE: no. of subjects [3]
0: Aphthous ulcer: no. of subjects [2] | Bronchitis: no. of subjects [2] | Cellulitis: no. of subjects [2] | Depressed mood: no. of subjects [2] | Drug hypersensitivity: no. of subjects [2] | Ear and labyrinth disorders: no. of subjects [2] | Folliculitis: no. of subjects [2] | Immune system disorders: no. of subjects [2] | Influenza: no. of subjects [2] | Meniere's disease: no. of subjects [2] | Metabolism and nutrition disorders: no. of subjects [2] | Nausea: no. of subjects [2] | Panic reaction: no. of subjects [2] | Polydipsia: no. of subjects [2] | Procedural pain: no. of subjects [2] | Rash: no. of subjects [2] | Renal and urinary disorders: no. of subjects [2] | Renal failure: no. of subjects [2] | Self-injurious ideation: no. of subjects [2] | Sexual dysfunction: no. of subjects [2] | Somnolence: no. of subjects [2] | Suicide attempt: no. of subjects [2] | Tooth impacted: no. of subjects [2] | Toothache: no. of subjects [2] | Viral upper respiratory tract infection: no. of subjects [2] | TEAE leading to death: no. of subjects [3] | Cellulitis: no. of subjects [5] | Infections and infestations: no. of subjects [5] | Suicide attempt: no. of subjects [5]
6: Gastrointestinal disorders: no. of subjects [2] | Nervous system disorders: no. of subjects [2]
(48.1%): Total no. subjects with adverse events: % of subjects [2]
(5.7%): Weight increased: % of subjects [1]
7: Vomiting: no. of subjects [1]
3.7%: Psychiatric disorders: % of subjects [5] | Suicidal ideation: % of subjects [5] | Total no. subjects with a serious adverse event: % of subjects [5]
82.9%: Possibly related TEAE: % of subjects [3]
3: Vision blurred: no. of subjects [1] | Infections and infestations: no. of subjects [2] | Insomnia: no. of subjects [2]
29: Possibly related TEAE: no. of subjects [3]
5: Psychiatric disorders: no. of subjects [2] | TEAE leading to drug withdrawn: no. of subjects [3]
(11.1%): Infections and infestations: % of subjects [2] | Insomnia: % of subjects [2]
13: Total no. subjects with adverse events: no. of subjects [2]
2.9%: Agitation: % of subjects [4] | Depressive symptom: % of subjects [4]
(7.4%): Dry mouth: % of subjects [2] | Headache: % of subjects [2] | Injury, poisoning and procedural complications: % of subjects [2] | Musculoskeletal and connective tissue disorders: % of subjects [2] | Pharyngitis: % of subjects [2] | Respiratory, thoracic and mediastinal disorders: % of subjects [2] | Tremor: % of subjects [2]
(22.2%): Gastrointestinal disorders: % of subjects [2] | Nervous system disorders: % of subjects [2]
5.7%: Suicidal ideation: % of subjects [4]
(8.6%): Vision blurred: % of subjects [1]
14.3%: TEAE leading to drug withdrawn: % of subjects [3]
1: Abdominal pain: no. of subjects [2] | Abdominal tenderness: no. of subjects [2] | Back pain: no. of subjects [2] | Cogwheel rigidity: no. of subjects [2] | Contusion: no. of subjects [2] | Depression: no. of subjects [2] | Diarrhea: no. of subjects [2] | Dizziness: no. of subjects [2] | Dysgeusia: no. of subjects [2] | Ear infection: no. of subjects [2] | Epistaxis: no. of subjects [2] | Flank pain: no. of subjects [2] | Intentional self-injury: no. of subjects [2] | Loss of consciousness: no. of subjects [2] | Migraine: no. of subjects [2] | Musculoskeletal chest pain: no. of subjects [2] | Musculoskeletal pain: no. of subjects [2] | Nasal congestion: no. of subjects [2] | Nasopharyngitis: no. of subjects [2] | Neck pain: no. of subjects [2] | Night sweats: no. of subjects [2] | Pelvic pain: no. of subjects [2] | Reproductive system and breast disorders: no. of subjects [2] | Restlessness: no. of subjects [2] | Road traffic accident: no. of subjects [2] | Sedation: no. of subjects [2] | Skin and subcutaneous tissue disorders: no. of subjects [2] | Suicidal ideation: no. of subjects [2] | Upper respiratory tract infection: no. of subjects [2] | Vomiting: no. of subjects [2] | Vulvovaginal mycotic infection: no. of subjects [2] | Agitation: no. of subjects [4] | Depressive symptom: no. of subjects [4] | Psychiatric disorders: no. of subjects [5] | Suicidal ideation: no. of subjects [5] | Total no. subjects with a serious adverse event: no. of subjects [5]
(18.5%): Psychiatric disorders: % of subjects [2]
2: Weight increased: no. of subjects [1] | Dry mouth: no. of subjects [2] | Headache: no. of subjects [2] | Injury, poisoning and procedural complications: no. of subjects [2] | Musculoskeletal and connective tissue disorders: no. of subjects [2] | Pharyngitis: no. of subjects [2] | Respiratory, thoracic and mediastinal disorders: no. of subjects [2] | Tremor: no. of subjects [2] | Suicidal ideation: no. of subjects [4]
4: Vertigo: no. of subjects [1] | 1 or more serious TEAE: no. of subjects [3] | Psychiatric disorders: no. of subjects [4] | Total no. subjects with a serious TEAE: no. of subjects [4]
11.4%: 1 or more serious TEAE: % of subjects [3] | Psychiatric disorders: % of subjects [4] | Total no. subjects with a serious TEAE: % of subjects [4]
